Each structure is given as a SMILES string.

Series [1] can be described thus: Dissociation constant, pKa of the compound in DMF-H2O (6.7% v/v) by titration method. The class given is physicochemical.
For series [2], the system named is Cavia porcellus. Nature of the series: Antiinflammatory activity in depilated albino guinea pig assessed as suppression of UV radiation-induced skin erythema compound administered via gavage measured 2 hrs after UV irradiation exposure. It is filed as functional. Conditions: light or radiation study, po, read-out: MED.

By pKa is commonly meant the negative logarithm of the acid dissociation constant. Regarding `O=C(O)Cc1ccc2ccccc2c1-c1ccccc1`, the pKa in series [1] came to 7.2. Besides, in series [2], the minimal effective dose was above 200 mg/kg.

Compound `O=C(O)Cc1ccc2cccc(-c3ccccc3)c2c1` came in with a pKa in series [1] of 6.8. In series [2], the minimal effective dose was above 100 mg/kg.

In the case of `O=C(O)Cc1ccc2ccc(-c3ccccc3)cc2c1`, the pKa in series [1] came out at 6.7. Besides, the minimal effective dose in series [2] is above 50 mg/kg.

On to `O=C(O)Cc1cccc2c(-c3ccccc3)cccc12`, for which the pKa in series [1] amounted to 6.7. Also, the minimal effective dose in series [2] worked out at 0.1 mg/kg.

In the case of `Cc1ccc(Cl)c(Nc2ccccc2C(=O)O)c1Cl` [MECLOFENAMIC ACID], the minimal effective dose in series [2] was 0.4 mg/kg.

In series [1], `O=C(O)Cc1ccc2cc(-c3ccccc3)ccc2c1` had a pKa of 6.6. In series [2], the minimal effective dose stood at 3.1 mg/kg.

`O=C(O)Cc1ccc2c(-c3ccccc3)cccc2c1` yielded a pKa in series [1] of 6.6. Further, in series [2], the minimal effective dose worked out at 3.1 mg/kg.

Regarding `O=C(O)Cc1cccc2ccc(-c3ccccc3)cc12`, the pKa in series [1] was determined as 6.9. Further, the minimal effective dose in series [2] amounted to 100 mg/kg.

Consider `O=C(O)Cc1c(-c2ccccc2)ccc2ccccc12`, for which the pKa in series [1] is 6.9. Moreover, the minimal effective dose in series [2] was above 50 mg/kg.

`O=C(O)Cc1ccc(-c2ccccc2)c2ccccc12` displayed a pKa in series [1] of 6.8. In addition, the minimal effective dose in series [2] was found to be 0.1 mg/kg.

For the compound `O=C(O)Cc1cc2ccccc2cc1-c1ccccc1`, in series [1], the pKa came to 7.1. Further, the minimal effective dose in series [2] was above 200 mg/kg.

With `O=C(O)Cc1cc(-c2ccccc2)c2ccccc2c1`, the pKa in series [1] was 7. Besides, the minimal effective dose in series [2] was found to be 100 mg/kg.

Regarding `CCCCC1C(=O)N(c2ccccc2)N(c2ccccc2)C1=O` [PHENYLBUTAZONE], the minimal effective dose in series [2] was determined as 5.3 mg/kg.

Compound `O=C(O)Cc1cc(-c2ccccc2)cc2ccccc12` yielded a pKa in series [1] of 6.7. Also, in series [2], the minimal effective dose amounted to 50 mg/kg.

For the compound `O=C(O)Cc1cccc2cc(-c3ccccc3)ccc12`, the pKa in series [1] stood at 6.9. Further, the minimal effective dose in series [2] stood at 25 mg/kg.

Regarding `COc1ccc2c(c1)c(CC(=O)O)c(C)n2C(=O)c1ccc(Cl)cc1` [INDOMETHACIN], the minimal effective dose in series [2] worked out at 1.7 mg/kg.

The record behind these values is ChEMBL document CHEMBL3243945, “Antiinflammatory activity of isomeric phenylnaphthaleneacetic acids” (J Med Chem, 1977).
